Measurements as given in patent publication US10800778B2 (Entasis Therapeutics Limited, priority 2016, dated 2020).
pIC50: −log10 of the molar value. Where a name gives a salt, the structure may show the parent alone.

What was measured:
E. coli WT (ATCC 25922) = experiment: MIC, CLSI broth microdilution, beta-lactam with or without BLI; assay type: cell-based; settings: BLI at fixed 4 μg/ml
Description: (§1) The minimal inhibitory concentration (MIC) values against each organism and drug combination were determined using the Clinical and Laboratory Standards Institute guidelines (CLSI) broth microdilution methodology (CLSI M07-A10). The recommended quality control (QC) bacterial strains E. coli ATCC 25922, E. coli ATCC 35218 and Klebsiella pneumoniae ATCC 700603 were incorporated into each test according to the CLSI guidelines to assure that there was no variation between test dates (CLSI M100-S25). The MICs of these QC strains were within QC range on all test occasions. Drug containing plates were made using the master plate method. A cefpodoxime solution was prepared to 20× concentration and 2-fold serial dilutions were made in cation adjusted Mueller-Hinton Broth. Equal volumes of 20× examplar compounds at a fixed concentration were added to the master plate. 10 uL was stamped into daughter plates using a Tecan EVO robot. Organism suspensions were adjusted to a 0.5 McFarland standard and further diluted to yield a final inoculum between 3×10^5 and 7×10^5 colony-forming units (CFU)/mL. Bacterial inocula were made in sterile, cation adjusted Mueller-Hinton Broth (Beckton Dickinson). An inoculum volume of 1.1× concentration of 90 uL was added to wells (using a Tecan EVO robot). All inoculated microdilution plates were incubated in ambient air at 35° C. for 18-24 hours.
(§2) Following the procedure from Example 103, MICs were determined for several beta-lactams in presence of a fixed concentration (4 μg/mL) of exemplar compounds (Table 3) against 3 Enterobacteriaceae strains.

[1] = tested on: C. freundii AmpC, TEM-1, CMY65; experiment: as above; assay type: cell-based; settings: BLI at fixed 4 μg/ml
Description: as §1, §2

[2] = tested on: Klebsiella pneumoniae SHV-18, OXA-2, OKP-6 (ATCC 700603); experiment: as above; assay type: cell-based; settings: BLI at fixed 4 μg/ml; K. pneumoniae ATCC 700603
Description: as §1, §2

[3] = Rat PK, intravenous and oral; assay type: in vivo, Sprague-Dawley rats; settings: for AUC: Sprague-Dawley, plasma, rat, IV 10 mg/kg, analyte = compound administered; for Circulating concentrations of the ester in plasma: rat plasma, LC/MS/MS
Description: Intravenous rat pharmacokinetics of exemplar compounds were determined in jugular vein cannulated Sprague-Dawley rats (n=3) (Harlan Laboratories, Indianapolis, Ind.) at a dose of 10 mg/kg. Compounds were dissolved and administered intravenously in 0.9% saline, pH 6.5 at a dose volume of 2 mL/kg. […] Oral pharmacokinetic studies were conducted with exemplar compounds at 10 mg/kg equivalents of carboxylic acids. Doses were dissolved and administered orally in 25:75 PEG400: water for injection, pH 4.5 at a dose volume of 10 mL/kg. […] Plasma samples were stored at −80° C. prior to bioanalysis.
Plasma samples were thawed on ice prior to processing. Samples (30 μL) were diluted and proteins precipitated with 180 μL of acetonitrile containing 0.1% formic acid and 250 ng/mL of carbutamide (N1-(butylcarbanoyl)-sulfanilamide, Sigma-Aldrich Catalog # S385433) as an internal standard. Samples were vortexed for 30 seconds, centrifuged at 3400 g for 10 minutes and the supernatant transferred to injection vials.
LC/MS/MS analysis was completed on an AB Sciex QTrap 6500 mass spectrometer in positive ionization mode, coupled to a Schimadzu Nexera LC system. A Waters Atlantis T3 (3 μm, 3.0×50 mm) column was used for chromatographic separation. Injection volume was […] The mobile phase consisted 0.1% formic acid in water (A) and 0.1% formic acid in acetonitrile (B), with a gradient of 2-98% B:A over two minutes.
Plasma concentration vs. time profiles following intravenous (IV) administration and oral (PO) administration of exemplar compounds were analyzed by non-compartment analysis using WinNonLin 6.4.

[4] = target: OXA-48 (Class D beta-lactamase) (Klebsiella pneumoniae, UniProt Q6XEC0); experiment: Inhibition of beta-lactamase enzymes (nitrocefin hydrolysis), OXA-48; assay type: biochemical; settings: read-out: Class D OXA-48 60 min IC50, nitrocefin 100 μM
Procedure, shortened: (§3)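 Nitrocefin (100 μM) hydrolysis followed at 490 nm for 1 h in 0.1 M sodium phosphate pH 7.0, 10 mM NaHCO3, 0.005% Triton X-100, with 3-fold inhibitor dilutions from 100 μM to 62.7 pM. Progress curves fitted globally to give kinact/Ki or Ki; percent inhibition from best-fit absorbance fitted with Hill equation.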

[5] = target: TEM-1 (Class A beta-lactamase) (Escherichia coli, UniProt P62593); experiment: Inhibition of beta-lactamase enzymes (nitrocefin hydrolysis), TEM-1; assay type: biochemical; settings: read-out: Class A TEM-1 60 min IC50, nitrocefin 100 μM
Procedure, shortened: as §3

[6] = Stability/conversion of esters in human liver S9; assay type: in vitro ADME
Procedure, shortened: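 Ester test compounds (10 μM) were incubated at 37° C with human liver S9 at 0.8 mg/mL in 100 mM HEPES buffer, pH 7.4. Aliquots taken from 0 to 60 min were quenched in acetonitrile containing carbutamide internal standard, centrifuged, and analyzed by LC-MS/MS MRM; first-order half-lives came from loss of the parent ester.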

[7] = Stability/conversion of esters in human intestinal S9; assay type: in vitro ADME
Procedure, shortened: (§4)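 Esters at 10 μM incubated at 37 °C with 0.8 mg/mL S9 (human intestinal without PMSF, rat liver or rat intestinal) or no enzyme, in 100 mM HEPES pH 7.4; sampled 0–60 min. LC-MS/MS tracked ester and hydrolysed active; first-order T1/2 from ester disappearance.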

[8] = Stability/conversion of esters in rat liver S9; assay type: in vitro ADME
Procedure, shortened: as §4

[9] = Stability/conversion of esters in rat intestinal S9; assay type: in vitro ADME
Procedure, shortened: as §4

[10] = Stability in pH 7.4 buffer (no enzyme); assay type: physicochemical; settings: read-out: T1/2 pH 7.4 Buffer
Procedure, shortened: as §4

[11] = tested on: E. coli ARC2687 (AmpC, CTX-M-14); experiment: Mouse neutropenic thigh infection model, oral efficacy of cefpodoxime proxetil with Example 35; assay type: in vivo
Description: The oral in vivo efficacy of Example 35 was evaluated in combination with cefpodoxime proxetil in a mouse neutropenic thigh infection model versus a relevant clinical isolate. […] CD-1 mice (Charles River, Wilmington US) were housed in shoebox type cages with contact bedding and acclimated to the facility for a minimum of 2 days prior to use. The animal room was maintained at 70° F., with 50+/−10% relative humidity and a 12-hour light/dark cycle. The study was conducted using an IACUC-approved protocol in accordance with Title 9 of the Code of Federal Regulations. Animals were rendered neutropenic with two intraperitoneal doses of cyclophosphamide (150 mg/kg—4 days and 100 mg/kg—1 day prior to infection (Gerber et al. (1983) J Infect Dis 147(5); 910-917)). Animals were infected via an intramuscular challenge of ˜1×10^6 CFU administered within 100 μL of 0.9% saline. The inoculum was prepared from a 25 mL overnight culture of E. coli ARC 2687 in tryptic soy broth media. Following an OD600 determination, the inoculum was diluted in 0.9% saline to a concentration of […] prior to inoculation into the left and right thigh. Oral therapy with cefpodoxime proxetil alone and in combination with Example 35 was initiated 2 hours post bacterial challenge. Doses were suspended in 0.5% HPMC/0.1% Tween 80 and administered by oral gavage at a dose volume of 10 mL/kg. A terminal endpoint was obtained at 24 hr to determine bacterial counts in thigh tissue (CFU/gm). Animals were ethically euthanized, thighs were asceptically removed, weighed and homogenized in 1 mL of saline. Bacterial burden enumeration of tissue homogenate was performed by serial dilution on tryptic soy agar plates which were incubated overnight at 37° C. prior to colony (CFU) counting. The lower limit of detection was ˜2.6 log10 CFU/gm of tissue.

Sequence of OXA-48 (Class D beta-lactamase) (Q6XEC0 whole entry, looked up, species assumed): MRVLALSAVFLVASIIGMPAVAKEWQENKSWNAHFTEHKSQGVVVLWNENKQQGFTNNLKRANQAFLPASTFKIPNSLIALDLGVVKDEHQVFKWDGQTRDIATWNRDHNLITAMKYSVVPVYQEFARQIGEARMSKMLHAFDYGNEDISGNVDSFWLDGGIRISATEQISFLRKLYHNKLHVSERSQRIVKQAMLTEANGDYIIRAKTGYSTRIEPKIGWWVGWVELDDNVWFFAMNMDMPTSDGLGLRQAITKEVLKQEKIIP
Sequence of TEM-1 (Class A beta-lactamase) (P62593 whole entry, looked up, species assumed): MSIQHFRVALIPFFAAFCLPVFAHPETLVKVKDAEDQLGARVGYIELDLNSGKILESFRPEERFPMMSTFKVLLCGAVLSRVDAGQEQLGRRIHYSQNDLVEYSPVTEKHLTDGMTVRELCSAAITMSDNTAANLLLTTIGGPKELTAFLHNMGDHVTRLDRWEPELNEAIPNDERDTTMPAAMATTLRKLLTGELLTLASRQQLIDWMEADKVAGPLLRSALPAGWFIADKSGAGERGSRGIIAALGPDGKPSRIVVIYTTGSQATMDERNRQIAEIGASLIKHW

Row | SMILES | MIC of cefixime in presence of BLI (E. coli WT (ATCC 25922)) [µg/mL] | MIC of cefuroxime in presence of BLI (E. coli WT (ATCC 25922)) [µg/mL] | MIC of faropenem in presence of BLI (E. coli WT (ATCC 25922)) [µg/mL] | MIC of tebipenem in presence of BLI (E. coli WT (ATCC 25922)) [µg/mL] | MIC of cefixime in presence of BLI [1] [µg/mL] | MIC of cefuroxime in presence of BLI [1] [µg/mL] | MIC of faropenem in presence of BLI [1] [µg/mL] | MIC of tebipenem in presence of BLI [1] [µg/mL] | MIC of cefixime in presence of BLI [2] [µg/mL] | MIC of faropenem in presence of BLI [2] [µg/mL] | MIC of tebipenem in presence of BLI [2] [µg/mL] | AUC [3] [µM·h] | pIC50 [4] | pIC50 [5] | Circulating concentrations of the ester in plasma [3] | further results
1 | CC1=C[C@@H]2CN(C(=O)N2O[C@@H](F)C(=O)O)[C@@H]1C(N)=O [Example 3, (2S)-{[(2S,5R)-2-carbamoyl-3-methyl-7-oxo-1,6-diazabicyclo[3.2.1]oct-3-en-6-yl]oxy}(fluoro)ethanoic acid lithium salt] | 0.125 | 0.02 | 0.25 | ≤0.06 | 1 | 1 | 0.25 | ≤0.06 | 0.5 | 2 | 0.125 | 34.9 | 7.82 | 7.72 | – | –
2 | CC1=C[C@@H]2CN(C(=O)N2O[C@H](F)C(=O)O)[C@@H]1C(N)=O [Example 4, (2R)-{[(2S,5R)-2-carbamoyl-3-methyl-7-oxo-1,6-diazabicyclo[3.2.1]oct-3-en-6-yl]oxy}(fluoro)ethanoic acid lithium salt] | ≤0.06 | 0.02 | ≤0.06 | ≤0.06 | ≤0.06 | 0.02 | ≤0.06 | ≤0.06 | ≤0.06 | 1 | ≤0.06 | 19.1 | 7.82 | 8.87 | – | –
3 | CC1=C[C@@H]2CN(C(=O)N2O[C@H](F)C(=O)OC(C)C)[C@@H]1C(N)=O [Example 12, propan-2-yl (2R)-{[(2S,5R)-2-carbamoyl-3-methyl-7-oxo-1,6-diazabicyclo[3.2.1]oct-3-en-6-yl]oxy}(fluoro)ethanoate] | – | – | – | – | – | – | – | – | – | – | – | – | – | – | Rapid hydrolysis precluded satisfactory analysis of circulating concentrations | half-life at 10 μM ([6]; liver S9, pH 7.4, read-out: T1/2 Human Liver S9): 0.267 h; half-life at 10 μM ([7]; intestinal S9 (without PMSF), pH 7.4, read-out: T1/2 Human Intestinal S9): 2.2 h; half-life at 10 μM ([8]; liver S9, pH 7.4, read-out: T1/2 Rat Liver S9): 0.233 h; half-life at 10 μM ([9]; intestinal S9, pH 7.4, read-out: T1/2 Rat Intestinal S9): 3.88 h; half-life at 10 μM ([10]; HEPES buffer without enzyme): 3.93 h
4 | CC1=C[C@@H](C(N)=O)N2C[C@@H]1N(O[C@@H](F)C(=O)O)C2=O [Example 34, (2S)-2-(((2S,5R)-2-carbamoyl-4-methyl-7-oxo-1,6-diazabicyclo[3.2.1]oct-3-en-6-yl)oxy)-2-fluoroacetic acid lithium salt] | ≤0.06 | <0.03125 | ≤0.06 | ≤0.06 | ≤0.06 | <0.03125 | ≤0.06 | ≤0.06 | ≤0.06 | 0.5 | ≤0.06 | 16.1 | 7.72 | 7.59 | – | MIC of cefuroxime in presence of BLI [2]: 1 µg/mL
5 | CC1=C[C@@H](C(N)=O)N2C[C@@H]1N(O[C@H](F)C(=O)OC(C)C)C2=O [Example 35, (2R)-isopropyl 2-(((2S,5R)-2-carbamoyl-4-methyl-7-oxo-1,6-diazabicyclo[3.2.1]oct-3-en-6-yl)oxy)-2-fluoroacetate] | – | – | – | – | – | – | – | – | – | – | – | – | – | – | Rapid hydrolysis precluded satisfactory analysis of circulating concentrations | half-life at 10 μM ([6]; s9, pH 7.4, read-out: T1/2 Human Liver S9): 0.65 h; maximal kill relative to initiation of therapy ([11]; 50 mg/kg cefpodoxime proxetil + 100 mg/kg Example 35 q6h, oral, 24 hr): −0.75 log10 CFU/gm; log10CFU/gm thigh ([11]; Example 35 alone 10 mg/kg PO/q6h, mouse neutropenic thigh, E. coli ARC2687): 9.56 log10CFU/gm thigh; CFU Change from 26 hr ([11]; Example 35 alone 10 mg/kg PO/q6h, relative to 26 hr growth control): −1.30 log10 CFU/gm; CFU Change from 2 hr ([11]; Example 35 alone 10 mg/kg PO/q6h, relative to initiation of therapy): +3.29 log10 CFU/gm; growth of bacterial burden in thighs after 24 hours of therapy ([11]; Example 35 alone at 10 mg/kg q6h, oral, neutropenic CD-1 mice): greater than 3 log10 CFU/gm; effect of increasing dose on bacterial burden ([11]; in combination with cefpodoxime proxetil 50 mg/kg q6h, oral): dose dependent reduction of bacterial burden; half-life at 10 μM ([7]; s9, pH 7.4, read-out: T1/2 Human Intestinal S9): 2.72 h; half-life at 10 μM ([8]; s9, pH 7.4, read-out: T1/2 Rat Liver S9): 0.533 h; half-life at 10 μM ([9]; s9, pH 7.4, read-out: T1/2 Rat Intestinal S9): 4 h; half-life at 10 μM ([10]; buffer): 3.1 h
